# Assay results: publication PMC7830714 (Molecular pharmaceutics, 2017)
# Target: T1, ABCG2 (Homo sapiens, UniProt Q9UNQ0)
# T1 sequence (Q9UNQ0 1-655): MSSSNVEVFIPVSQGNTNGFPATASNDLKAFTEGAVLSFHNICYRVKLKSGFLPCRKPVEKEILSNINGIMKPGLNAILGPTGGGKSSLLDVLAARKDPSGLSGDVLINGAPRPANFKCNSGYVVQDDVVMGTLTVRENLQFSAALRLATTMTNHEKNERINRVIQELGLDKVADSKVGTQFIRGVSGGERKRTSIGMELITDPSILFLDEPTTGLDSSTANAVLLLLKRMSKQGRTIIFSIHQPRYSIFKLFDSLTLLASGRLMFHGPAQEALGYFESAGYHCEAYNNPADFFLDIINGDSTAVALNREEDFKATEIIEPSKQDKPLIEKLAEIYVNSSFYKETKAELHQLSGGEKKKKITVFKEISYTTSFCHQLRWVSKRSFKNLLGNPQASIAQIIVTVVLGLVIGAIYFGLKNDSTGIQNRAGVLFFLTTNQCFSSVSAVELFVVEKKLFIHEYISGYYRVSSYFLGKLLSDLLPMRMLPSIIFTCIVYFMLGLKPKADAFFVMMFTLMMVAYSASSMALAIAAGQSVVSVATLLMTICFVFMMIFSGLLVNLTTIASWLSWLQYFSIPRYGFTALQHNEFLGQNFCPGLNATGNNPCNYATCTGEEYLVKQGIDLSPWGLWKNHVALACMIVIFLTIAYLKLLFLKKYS
# Test: inhibition of […]IAAP photoaffinity labeling in MCF7-FLV1000 membrane vesicles
# Format: binding
smiles,measurement,value
N#Cc1ccc(-c2c(-c3ncn[nH]3)sc(N3CCOCC3)c2C#N)c(F)c1 [PF-4989216],% inhibition of photolabeling at 10 μM,~ 55
